# According to US9694003B2, “Formulations and methods for treating high intraocular pressure” (Bridge Pharma, Inc., priority 2015, dated 2017):
# How the values were obtained:
# Candida albicans = test: Preservation challenge test (USP 51), C. albicans; type: cell-based; conditions: saline formulation, pH 5.0
# Protocol: (§1) METHOD: The standardized Preservative Challenge Test (U.S. Pharmacopeia 51 Antimicrobial Effectiveness Testing) have been used for tests of self-preservation by norketotifen in concentrations to be used for patients suffering from allergic conjunctivitis and xerophthalmia. USP (51) is a standard test used to determine the antimicrobial effectiveness of test articles and ophthalmic formulations. The present tests were using 150 ml of each formulation and covered the mandatory five organisms: Escherichia coli (fermentative G−), Pseudomonas aeruginosa (non-fermentative G−), Staphylococcus aureus (G+), Aspergillus brasiliensis (mold), and Candida albicans (yeast). The number of inoculated cells was 0.5×10^5 per mL and the incubation temperature was 25° C. for all inoculations. Plating for measuring of recoveries were performed weekly over 4 weeks. The norketotifen formulations were defined as being self-preserving only if the numbers of cell colonies remained constant (fungi) and were declining (bacteria) according to the strictly standardized USP 51 protocol. […] All solutions used in the antimicrobial studies were devoid of added preservatives.
# (§2) USP Criteria for Tested Microorganisms (Category 1)
# (§3) Yeast and Molds (Fungi): No increase from the initial calculated count at 14 or 28 days.
# Escherichia coli = test: Preservation challenge test (USP 51), E. coli; type: cell-based; conditions: saline formulation, pH 5.0
# Protocol: as §1, §2
# (§4) Bacteria: Not less than a 3.0 logarithmic reduction from the initial count to the count at 14 days, and no increase from the counts at 14 days to the counts at 28 days.
# Pseudomonas aeruginosa = test: Preservation challenge test (USP 51), P. aeruginosa; type: cell-based; conditions: saline formulation, pH 5.0
# Protocol: as §1, §2, §4
# Aspergillus brasiliensis = test: Preservation challenge test (USP 51), A. brasiliensis; type: cell-based; conditions: saline formulation, pH 5.0
# Protocol: as §1, §2, §3
# [1] = tested on: Escherichia coli, Pseudomonas aeruginosa, Staphylococcus aureus, Aspergillus brasiliensis, Candida albicans; test: Preservative Challenge Test (USP 51 Antimicrobial Effectiveness Testing), all five organisms; type: cell-based; conditions: ocular formulation without preservatives, concentrations useful for decreasing IOP
# Protocol: METHOD: The standardized Preservative Challenge Test (U.S. Pharmacopeia 51 Antimicrobial Effectiveness Testing) have been used for tests of self-preservation by norketotifen in concentrations to be used for patients suffering from allergic conjunctivitis and xerophthalmia. USP (51) is a standard test used to determine the antimicrobial effectiveness of test articles and ophthalmic formulations. The present tests were using 150 ml of each formulation and covered the mandatory five organisms: Escherichia coli (fermentative G−), Pseudomonas aeruginosa (non-fermentative G−), Staphylococcus aureus (G+), Aspergillus brasiliensis (mold), and Candida albicans (yeast). The number of inoculated cells was 0.5×10^5 per mL and the incubation temperature was 25° C. for all inoculations. Plating for measuring of recoveries were performed weekly over 4 weeks. The norketotifen formulations were defined as being self-preserving only if the numbers of cell colonies remained constant (fungi) and were declining (bacteria) according to the strictly standardized USP 51 protocol. Tests were performed at pH 4.0, pH 4.5, pH 5.0 and pH 6.0 and the test articles were dissolved in BSA/water (BSA=bovine serum albumin) containing at least 0.01 percent norketotifen (calculated as free base). […]
# as §3
# Staphylococcus aureus = test: Preservation challenge test (USP 51), S. aureus; type: cell-based; conditions: saline formulation, pH 5.0
# Protocol: as §1, §2, §4
# rabbits = test: Ocular irritation/toxicity study, repeated daily ocular doses; type: in vivo; conditions: repeated daily doses for 6 weeks, highest concentration tested
# Protocol: (§5) Fifty-two rabbits (26F+26M) were assigned to four groups and were administered repeated daily doses of norketotifen HF solutions by the ocular route, 0.00, 0.0345, 0.0690 and 0.138 wt % for 6 weeks. […] In addition to regular toxicology parameters, ophthalmic parameters and ocular irritation scores were assessed. Blood samples were collected at predetermined time intervals. Plasma sample were analyzed using a validated LCMS-MS method. Plasma pharmacokinetics was calculated.
# [2] = tested on: intraocular pressure in the eyes of rabbits; test: Intraocular pressure during repeated daily norketotifen eye-drops; type: in vivo; conditions: 6 rabbits
# Protocol: as §5
# In the previously described Ocular Irritation/Toxicity Study (Example 7), intraocular pressure was measured in the eyes of one group of rabbits (3M+3F), before, during and after repeated daily ocular treatment with norketotifen eye-drops. […] The group tested for effects on IOP consisted of 12 eyes and the dose administered was 0.14 wt % and norketotifen was administered daily for 6 weeks, followed by a two-week recovery period without norketotifen administration. Day 42 was the last day of the treatment period and Day 56 was the last day of the recovery period.
# [3] = Solubility of norketotifen HF in non-aqueous carriers; type: physicochemical
# Description: The intraocular formulations contain a carrier, such as water which is the carrier for an aqueous solution. Non-aqueous carriers include polyethylene glycol (PEG) and/or propylene glycol (PG) can be used in ophthalmic compositions. […] Norketotifen can be dissolved in water in concentrations up to about 0.2 wt %. Exemplary non-aqueous solvents include polyethylene glycol (about 0.1% to about 90%) and propylene glycol (about 0.1% to about 90%).
# trabecular mesh = conditions: within 15 minutes of exposure; cited from earlier work
# eye = conditions: cited from earlier work
# cornea = conditions: topical application to the eye, usual clinical concentration; cited from earlier work
# macrophages = conditions: cited from earlier work
Compound,C. albic CFU/ml (Candida albicans; Day 0) [CFU/ml],C. albic CFU/ml (Candida albicans; Day 14),C. albic CFU/ml (Candida albicans; Day 28),C. albic Log Reduc (Candida albicans; Day 28),E. coli CFU/ml (Escherichia coli; Day 0) [CFU/ml],E. coli CFU/ml (Escherichia coli; Day 14),E. coli Log Reduc (Escherichia coli; Day 14),E. coli CFU/ml (Escherichia coli; Day 28),E. coli Log Reduc (Escherichia coli; Day 28),P. aerugin CFU/ml (Pseudomonas aeruginosa; Day 0) [CFU/ml],P. aerugin CFU/ml (Pseudomonas aeruginosa; Day 14),P. aerugin Log Reduc (Pseudomonas aeruginosa; Day 14),P. aerugin CFU/ml (Pseudomonas aeruginosa; Day 28),P. aerugin Log Reduc (Pseudomonas aeruginosa; Day 28),A. brasil CFU/ml (Aspergillus brasiliensis; Day 0) [CFU/ml],A. brasil CFU/ml (Aspergillus brasiliensis; Day 14) [CFU/ml],A. brasil Log Reduc (Aspergillus brasiliensis; Day 14),A. brasil CFU/ml (Aspergillus brasiliensis; Day 28) [CFU/ml],A. brasil Log Reduc (Aspergillus brasiliensis; Day 28),S. aureus CFU/ml (Staphylococcus aureus; Day 0) [CFU/ml],other results
"CN1CCC(=C2c3ccccc3CC(=O)c3sccc32)CC1.O=C(O)/C=C/C(=O)O [KETO, RS-ketotifen hydrogen fumarate, reference compound]",7.9E+05,3.0E+03 CFU/ml,1.1E+03 CFU/ml,0.25,1.5E+06,2.5E+04 CFU/ml,1.78,2.6E+06 CFU/ml,None,3.1E+05,1.5E+4 CFU/ml,1.31,2.3E+05 CFU/ml,0.13,3.6E+05,4.8E+05,None,2.0E+05,0.25,2.0E+06,"self-preservation test, conclusion [1]: not pass the self-preservation test; S. aureus CFU/ml (Staphylococcus aureus; Day 14): 3.3E+06 CFU/ml; S. aureus Log Reduc (Staphylococcus aureus; Day 14): None; S. aureus CFU/ml (Staphylococcus aureus; Day 28): 3.6E+06 CFU/ml; S. aureus Log Reduc (Staphylococcus aureus; Day 28): None"
"O=C(O)C=CC(=O)O.O=C1Cc2ccccc2C(=C2CCNCC2)c2ccsc21 [norketotifen HF, RS-norketotifen hydrogen fumarate]",6.0E+05,<5.0+00 CFU/ml,<5.0+00 CFU/ml,>5.08,8.5E+05,<5.0+00 CFU/ml,>5.23,<5.0+00 CFU/ml,>5.23,4.7E+05,<5.0+00 CFU/ml,>4.79,<5.0+00 CFU/ml,>4.97,7.0E+05,5.75E+02,3.09,3.10E+02,3.35,2.5E+05,"No-Observable-Adverse-Effect-Level (NOAEL) (rabbits): 0.138%; C. albic Log Reduc (Candida albicans; Day 14): >5.08; IOP (mm Hg; ± SD) ([2]; Day 1 (pretest), 12 eyes): 20.4 ± 2.9 mm Hg; IOP (mm Hg; ± SD) ([2]; Day 42 (treatment), 0.14 wt % eye-drops daily for 6 weeks, P = 0.0005 vs. Day 1): 16.5 ± 1.7 mm Hg; IOP (mm Hg; ± SD) ([2]; Day 56 (recovery, two weeks without dosing), P < 0.0001 vs. Day 42): 20.5 ± 1.6 mm Hg; solubility in polyethylene glycol (PEG 300) ([3]; PEG 300): about 0.15 percent w/w; solubility in propylene glycol ([3]; propylene glycol): up to 1.0 wt %; S. aureus CFU/ml (Staphylococcus aureus; Day 14): <5.0+00 CFU/ml; S. aureus Log Reduc (Staphylococcus aureus; Day 14): >4.70; S. aureus CFU/ml (Staphylococcus aureus; Day 28): <5.0+00 CFU/ml; S. aureus Log Reduc (Staphylococcus aureus; Day 28): >4.70"
benzalkonium chloride [BAK],,,,,,,,,,,,,,,,,,,,,"concentration expressing toxicity that targets the trabecular mesh (trabecular mesh): 0.0001%; concentration inducing toxic ocular effects (eye): ≥ 0.0001%; concentration causing corneal neurotoxicity (cornea): 0.01%; concentration that stimulates macrophages, increases phagocytosis and releases cytokines (macrophages): 0.0001%"
